Results as given in patent publication US20260015358A1, “BICYCLIC DERIVATIVES, COMPOSITIONS AND USES THEREOF” (Danatlas Pharmaceuticals Co., Ltd., priority 2023, published 2026).

Legend:
[1] = biological target: T1, WRN [UniPro: Q14191 (WRN_HUMAN), N500-C946] (Homo sapiens (Human), UniProt Q14191); experiment: WRN unwinding assay (FORKF DNA, fluorescence); format: biochemical; settings: Table 14
[2] = biological target: T1, WRN [UniPro: Q14191 (WRN_HUMAN), N500-C946]; experiment: WRN ATPase assay (ADP-Glo); format: biochemical; settings: WRN enzymatic activity assay

T1 sequence (Q14191 500-946): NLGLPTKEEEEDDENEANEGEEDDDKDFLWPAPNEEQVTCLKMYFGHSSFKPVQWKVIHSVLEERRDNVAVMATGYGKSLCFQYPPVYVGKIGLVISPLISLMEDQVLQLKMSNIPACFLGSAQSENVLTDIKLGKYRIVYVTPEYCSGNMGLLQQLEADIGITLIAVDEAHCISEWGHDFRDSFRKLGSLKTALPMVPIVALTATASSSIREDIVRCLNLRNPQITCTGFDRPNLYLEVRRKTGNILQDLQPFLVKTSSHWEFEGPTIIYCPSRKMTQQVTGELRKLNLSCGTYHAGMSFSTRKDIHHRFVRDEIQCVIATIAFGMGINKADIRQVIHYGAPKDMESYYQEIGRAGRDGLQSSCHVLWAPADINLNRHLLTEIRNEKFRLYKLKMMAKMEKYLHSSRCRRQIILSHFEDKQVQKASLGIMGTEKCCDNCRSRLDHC

Row | SMILES | IC50 [1] | IC50 [2]
1 | CCc1c(N2CCN(C(=O)CNS(=O)(=O)c3ccccc3)CC2)c(=O)n2nc(C3=CCOCC3)nc2n1CC(=O)Nc1ccc(C(F)(F)F)cc1Cl [Example 171, N-(2-Chloro-4-(trifluoromethyl)phenyl)-2-(2-(3,6-dihydro-2H-pyran-4-yl)-5-ethyl-7-oxo-6-(4-(2-(phenylsulfonamido)acetyl)piperazin-1-yl)-[1,2,4]triazolo[1,5-a]pyrimidin-4(7H)-yl)acetamide] | 100 to 1000 nM | 100 to 1000 nM
2 | CCc1c(N2CCN(C(=O)C(=O)Nc3ccccc3)CC2)c(=O)n2nc(C3=CCOCC3)nc2n1CC(=O)Nc1ccc(C(F)(F)F)cc1Cl [Example 327, 2-(4-(4-(2-((2-Chloro-4-(trifluoromethyl)phenyl)amino)-2-oxoethyl)-2-(3,6-dihydro-2H-pyran-4-yl)-5-ethyl-7-oxo-4,7-dihydro-[1,2,4]triazolo[1,5-a]pyrimidin-6-yl)piperazin-1-yl)-2-oxo-N-phenylacetamide] | 100 to 1000 nM | 100 to 1000 nM
3 | CCc1c(N2CCN(C(=O)CNC(=O)c3c(O)cc(C)oc3=O)CC2)c(=O)n2nc(C3=CCOCC3)nc2n1CC(=O)Nc1ccc(C(F)(F)F)cc1Cl [Example 295, N-(2-(4-(4-(2-((2-Chloro-4-(trifluoromethyl)phenyl)amino)-2-oxoethyl)-2-(3,6-dihydro-2H-pyran-4-yl)-5-ethyl-7-oxo-4,7-dihydro-[1,2,4]triazolo[1,5-a]pyrimidin-6-yl)piperazin-1-yl)-2-oxoethyl)-4-hydroxy-6-methyl-2-oxo-2H-pyran-3-carboxamide] | > 1000 nM | 100 to 1000 nM
4 | CCc1c(N2CCN(C(=O)CNC(=O)c3ccccc3F)CC2)c(=O)n2nc(N3CCOCC3)cc2n1CC(=O)Nc1ccc(C(F)(F)F)cc1Cl [Example 344, N-(2-(4-(4-(2-((2-chloro-4-(trifluoromethyl)phenyl)amino)-2-oxoethyl)-5-ethyl-2-morpholino-7-oxo-4,7-dihydropyrazolo[1,5-a]pyrimidin-6-yl)piperazin-1-yl)-2-oxoethyl)-2-fluorobenzamide] | 100 to 1000 nM | 100 to 1000 nM
5 | CCc1c(N2CCN(C(=O)C(=O)N3CCCC3)CC2)c(=O)n2nc(C3=CCOCC3)nc2n1CC(=O)Nc1ccc(C(F)(F)F)cc1Cl [Example 358, N-(2-Chloro-4-(trifluoromethyl)phenyl)-2-(2-(3,6-dihydro-2H-pyran-4-yl)-5-ethyl-7-oxo-6-(4-(2-oxo-2-(pyrrolidin-1-yl)acetyl)piperazin-1-yl)-[1,2,4]triazolo[1,5-a]pyrimidin-4(7H)-yl)acetamide] | 100 to 1000 nM | 100 to 1000 nM
6 | CCc1c(N2CCN(C(=O)CNC(=O)c3nc(C)co3)CC2)c(=O)n2nc(C3=CCOCC3)nc2n1CC(=O)Nc1ccc(C(F)(F)F)cc1Cl [Example 301, N-(2-(4-(4-(2-((2-Chloro-4-(trifluoromethyl)phenyl)amino)-2-oxoethyl)-2-(3,6-dihydro-2H-pyran-4-yl)-5-ethyl-7-oxo-4,7-dihydro-[1,2,4]triazolo[1,5-a]pyrimidin-6-yl)piperazin-1-yl)-2-oxoethyl)-4-methyloxazole-2-carboxamide] | 100 to 1000 nM | 100 to 1000 nM
7 | CCc1c(N2CCN(C(=O)CNC(=O)NCc3ccccc3F)CC2)c(=O)n2nc(C3=CCOCC3)nc2n1CC(=O)Nc1ccc(C(F)(F)F)cc1Cl [Example 191, N-(2-Chloro-4-(trifluoromethyl)phenyl)-2-(2-(3,6-dihydro-2H-pyran-4-yl)-5-ethyl-6-(4-(((2-fluorobenzyl)carbamoyl)glycyl)piperazin-1-yl)-7-oxo-[1,2,4]triazolo[1,5-a]pyrimidin-4(7H)-yl)acetamide] | < 100 nM | < 100 nM
8 | CCc1c(N2CCN(C(=O)CNC)CC2)c(=O)n2nc(C3=CCOCC3)nc2n1CC(=O)Nc1ccc(C(F)(F)F)cc1Cl [Example 134, N-(2-Chloro-4-(trifluoromethyl)phenyl)-2-(2-(3,6-dihydro-2H-pyran-4-yl)-5-ethyl-6-(4-(methylglycyl)piperazin-1-yl)-7-oxo-[1,2,4]triazolo[1,5-a]pyrimidin-4(7H)-yl)acetamide] | < 100 nM | < 100 nM
9 | CCc1c(N2CCN(C(=O)CNC(=O)CC3CCCO3)CC2)c(=O)n2nc(C3=CCOCC3)nc2n1CC(=O)Nc1ccc(C(F)(F)F)cc1Cl (centres unmarked) [Example 338, N-(2-Chloro-4-(trifluoromethyl)phenyl)-2-(2-(3,6-dihydro-2H-pyran-4-yl)-5-ethyl-7-oxo-6-(4-((2-(tetrahydrofuran-2-yl)acetyl)glycyl)piperazin-1-yl)-[1,2,4]triazolo[1,5-a]pyrimidin-4(7H)-yl)acetamide] | < 100 nM | < 100 nM

Continued, values first:

Row | IC50 [1] | IC50 [2] | SMILES
10 | < 100 nM | < 100 nM | [2H]C([2H])(NC(=O)c1cc(NC)ccc1F)C(=O)N1CCN(c2c(CC)n(CC(=O)Nc3ccc(C(F)(F)F)cc3F)c3nc(C4=CCOCC4)nn3c2=O)CC1 [Example 209, N-(2-(4-(2-(3,6-Dihydro-2H-pyran-4-yl)-5-ethyl-4-(2-((2-fluoro-4-(trifluoromethyl)phenyl)amino)-2-oxoethyl)-7-oxo-4,7-dihydro-[1,2,4]triazolo[1,5-a]pyrimidin-6-yl)piperazin-1-yl)-2-oxoethyl-1,1-d2)-2-fluoro-5-(methylamino)benzamide]
11 | < 100 nM | < 100 nM | CCc1c(N2CCN(C(=O)CNC(=O)Nc3ccccc3)CC2)c(=O)n2nc(C3=CCOCC3)nc2n1CC(=O)Nc1ccc(C(F)(F)F)cc1Cl [Example 178, N-(2-Chloro-4-(trifluoromethyl)phenyl)-2-(2-(3,6-dihydro-2H-pyran-4-yl)-5-ethyl-7-oxo-6-(4-((phenylcarbamoyl)glycyl)piperazin-1-yl)-[1,2,4]triazolo[1,5-a]pyrimidin-4 (7H)-yl)acetamide]
12 | < 100 nM | 100 to 1000 nM | CCc1c(N2CCN(C(=O)c3n[nH]cc(C)c3=O)CC2)c(=O)n2nc(C3=CCOCC3)nc2n1CC(=O)Nc1ccc(C(F)(F)F)cc1Cl [Example 76, N-(2-Chloro-4-(trifluoromethyl)phenyl)-2-(2-(3,6-dihydro-2H-pyran-4-yl)-5-ethyl-6-(4-(5-methyl-4-oxo-1,4-dihydropyridazine-3-carbonyl)piperazin-1-yl)-7-oxo-[1,2,4]triazolo[1,5-a]pyrimidin-4(7H)-yl)acetamide]
13 | < 100 nM | < 100 nM | CCc1c(N2CCN(C(=O)CNC(=O)c3ccncc3O)CC2)c(=O)n2nc(C3=CCOCC3)nc2n1CC(=O)Nc1ccc(C(F)(F)F)cc1Cl [Example 381, N-(2-(4-(4-(2-((2-Chloro-4-(trifluoromethyl)phenyl)amino)-2-oxoethyl)-2-(3,6-dihydro-2H-pyran-4-yl)-5-ethyl-7-oxo-4,7-dihydro-[1,2,4]triazolo[1,5-a]pyrimidin-6-yl)piperazin-1-yl)-2-oxoethyl)-3-hydroxyisonicotinamide]
14 | < 100 nM | < 100 nM | CCc1c(N2CCN(C(=O)c3nnc(C(F)F)[nH]3)CC2)c(=O)n2nc(C3=CCOCC3)nc2n1CC(=O)Nc1ccc(C(F)(F)F)cc1F [Example 310, 2-(6-(4-(5-(Difluoromethyl)-4H-1,2,4-triazole-3-carbonyl)piperazin-1-yl)-2-(3,6-dihydro-2H-pyran-4-yl)-5-ethyl-7-oxo-[1,2,4]triazolo[1,5-a]pyrimidin-4(7H)-yl)-N-(2-fluoro-4-(trifluoromethyl)phenyl)acetamide]
15 | < 100 nM | 100 to 1000 nM | CCc1c(N2CCN(C(=O)CNC(=O)c3cnc4c(ccn4C)c3O)CC2)c(=O)n2nc(C3=CCOCC3)nc2n1CC(=O)Nc1ccc(C(F)(F)F)cc1Cl [Example 120, N-(2-(4-(4-(2-((2-Chloro-4-(trifluoromethyl)phenyl)amino)-2-oxoethyl)-2-(3,6-dihydro-2H-pyran-4-yl)-5-ethyl-7-oxo-4,7-dihydro-[1,2,4]triazolo[1,5-a]pyrimidin-6-yl)piperazin-1-yl)-2-oxoethyl)-4-hydroxy-1-methyl-1H-pyrrolo[2,3-b]pyridine-5-carboxamide]
16 | < 100 nM | < 100 nM | CCc1c(N2CCN(C(=O)C(=O)Nc3ccn[nH]3)CC2)c(=O)n2nc(C3=CCOCC3)nc2n1CC(=O)Nc1ccc(C(F)(F)F)cc1Cl [Example 333, 2-(4-(4-(2-((2-Chloro-4-(trifluoromethyl)phenyl)amino)-2-oxoethyl)-2-(3,6-dihydro-2H-pyran-4-yl)-5-ethyl-7-oxo-4,7-dihydro-[1,2,4]triazolo[1,5-a]pyrimidin-6-yl)piperazin-1-yl)-2-oxo-N-(1H-pyrazol-5-yl)acetamide]
17 | < 100 nM | < 100 nM | CCc1c(N2CCN(C(=O)CNC(=O)c3c[nH]cn3)CC2)c(=O)n2nc(C3=CCOCC3)nc2n1CC(=O)Nc1ccc(C(F)(F)F)cc1Cl [Example 121, N-(2-(4-(4-(2-((2-Chloro-4-(trifluoromethyl)phenyl)amino)-2-oxoethyl)-2-(3,6-dihydro-2H-pyran-4-yl)-5-ethyl-7-oxo-4,7-dihydro-[1,2,4]triazolo[1,5-a]pyrimidin-6-yl)piperazin-1-yl)-2-oxoethyl)-1H-imidazole-4-carboxamide]
18 | < 100 nM | < 100 nM | CCc1c(N2CCN(C(=O)CNC(=O)c3ccccc3F)CC2)c(=O)n2nc(C3=CCOCC3)cc2n1CC(=O)Nc1ccc(C(F)(F)F)cc1Cl [Example 343, N-(2-(4-(4-(2-((2-Chloro-4-(trifluoromethyl)phenyl)amino)-2-oxoethyl)-2-(3,6-dihydro-2H-pyran-4-yl)-5-ethyl-7-oxo-4,7-dihydropyrazolo[1,5-a]pyrimidin-6-yl)piperazin-1-yl)-2-oxoethyl)-2-fluorobenzamide]
19 | < 100 nM | < 100 nM | CCc1c(N2CCN(C(=O)CNC(=O)c3ncco3)CC2)c(=O)n2nc(C3=CCOCC3)nc2n1CC(=O)Nc1ccc(C(F)(F)F)cc1F [Example 217, N-(2-(4-(2-(3,6-Dihydro-2H-pyran-4-yl)-5-ethyl-4-(2-((2-fluoro-4-(trifluoromethyl)phenyl)amino)-2-oxoethyl)-7-oxo-4,7-dihydro-[1,2,4]triazolo[1,5-a]pyrimidin-6-yl)piperazin-1-yl)-2-oxoethyl)oxazole-2-carboxamide]
